The source of these data is patent publication US6479510B2, “Quinuclidine-substituted aryl compounds for treatment of disease” (Pharmacia & Upjohn Company, priority 2000, dated 2002).

Structures can show the parent of a compound that is named as a salt.

α7 nAChR, sequence (Q05941 23-502): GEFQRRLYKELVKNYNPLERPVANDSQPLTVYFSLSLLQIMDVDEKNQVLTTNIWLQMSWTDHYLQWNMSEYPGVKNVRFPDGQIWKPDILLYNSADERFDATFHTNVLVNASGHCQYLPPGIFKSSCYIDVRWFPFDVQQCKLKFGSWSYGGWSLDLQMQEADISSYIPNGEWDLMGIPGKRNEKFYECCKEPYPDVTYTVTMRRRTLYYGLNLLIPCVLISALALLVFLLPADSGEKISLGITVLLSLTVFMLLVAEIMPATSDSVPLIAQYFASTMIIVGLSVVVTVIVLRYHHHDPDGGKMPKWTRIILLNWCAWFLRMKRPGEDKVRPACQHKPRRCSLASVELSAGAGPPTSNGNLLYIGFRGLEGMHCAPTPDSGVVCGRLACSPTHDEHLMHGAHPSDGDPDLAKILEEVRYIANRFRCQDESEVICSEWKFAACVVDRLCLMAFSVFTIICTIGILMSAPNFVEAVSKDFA

The first assay has as its target α7 nAChR (Rattus norvegicus, UniProt Q05941). The assay can be described thus: [3H]-MLA competition binding assay in rat brain membranes.
Details: not given
An excerpt: Materials and Methods for identifying binding constants: […]
A word on the Ki: it is the dissociation constant of the complex between target and ligand, obtained from inhibition or displacement. With `O=C(N[C@H]1CN2CCC1CC2)c1ccc(Oc2ccc(O)cc2)cc1` [Example 1, N-[(3R)-1-azabicyclo[2.2.2]oct-3-yl]-4-(4-hydroxyphenoxy)benzamide], affinity was put at a Ki of 278 nM.
Still for that read-out and setting: in the case of `CC(=O)Nc1ccc(Oc2ccc(C(=O)N[C@H]3CN4CCC3CC4)cc2)cc1` [Example 2, N-[(3R)-1-azabicyclo[2.2.2]oct-3-yl]-4-(4-acetamidophenoxy)benzamide] it was 270 nM.
On the same count and under the same terms, the value for `O=C(N[C@H]1CN2CCC1CC2)c1ccc(Oc2ccccc2)cc1` [Example 3, N-[(3R)-1-azabicyclo[2.2.2]oct-3-yl]-4-phenoxybenzamide] was 847 nM; that for `O=C(N[C@H]1CN2CCC1CC2)c1ccc(C(=O)c2ccccc2)cc1` [Example 7, N-[(3R)-1-azabicyclo[2.2.2]oct-3-yl]-4-benzoylbenzamide] was 1580 nM.
Same read-out and setting: the value for `O=C(N[C@H]1CN2CCC1CC2)c1ccc(Oc2ccc(F)cc2)cc1` [Example 8, N-[(3R)-1-azabicyclo[2.2.2]oct-3-yl]-4-(4-fluorophenoxy)benzamide] was 910 nM; that for `O=C(N[C@H]1CN2CCC1CC2)c1ccc(Oc2cccc(Cl)c2)cc1` [Example 12, N-[(3R)-1-azabicyclo[2.2.2]oct-3-yl]-4-(3-chlorophenoxy)-benzamide] was 1590 nM.
Molecule `O=C(N[C@H]1CN2CCC1CC2)c1ccc(Oc2ccc(Cl)cc2)cc1` [Example 13, N-[(3R)-1-azabicyclo[2.2.2]oct-3-yl]-4-(4-chlorophenoxy)-benzamide] had a Ki of 1240 nM.
As to `COc1ccc(Oc2ccc(C(=O)N[C@H]3CN4CCC3CC4)cc2)cc1` [Example 16, N-[(3R)-1-azabicyclo[2.2.2]oct-3-yl]-4-(4-methoxyphenoxy)-benzamide], affinity was put at a Ki of 414 nM.
On the same count and under the same terms, the value for `O=C(N[C@H]1CN2CCC1CC2)c1ccc(Sc2cccc(Cl)c2)cc1` [Example 17, N-[(3R)-1-azabicyclo[2.2.2]oct-3-yl]-4-(3-chlorophenylsulfanyl)benzamide] was 170 nM.

The same assay, now with this note: read-out: Ki.
Regarding `COc1cccc(Oc2ccc(C(=O)N[C@H]3CN4CCC3CC4)cc2)c1` [Example 15, N-[(3R)-1-azabicyclo[2.2.2]oct-3-yl]-4-(3-methoxyphenoxy)-benzamide], the Ki amounted to 835 nM.
The same measure, in the same setting: in the case of `CC1C(NC(=O)c2ccc(Oc3ccccc3)cc2)C2CCN1CC2` (centres unmarked) [Example 23, N-(2-methyl-1-azabicyclo[2.2.2]oct-3-yl)-4-phenoxybenzamide Fumarate] it was 1660 to 1980 nM.
